Measurements reported in publication PMC11397024, “Strategic Fluorination to Achieve a Potent, Selective, Metabolically Stable, and Orally Bioavailable Inhibitor of CSNK2” (Molecules, 2024).

Columns and labels:
Assay in all cases: NanoBRET K192
Type in all cases: cell-based
Details in all cases: HEK293
[1] = biological target: T1, CDK1 + B1 (Homo sapiens, UniProt P06493)
T1 construct: purchased Promega (NanoBRET Target Engagement K192 Kinase Selectivity System)
Outline: (§1)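 HEK293 cells were transfected overnight with NanoLuc–kinase fusion vectors, then treated for 2 h at 37 °C with compound (added as 100 μM working solution) plus K10 tracer. BRET was read at 450/610 nm after substrate and extracellular inhibitor, and fractional occupancy was calculated against no-compound controls.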

[2] = biological target: T2, PLK4 (Homo sapiens, UniProt O00444)
T2 construct: purchased Promega (NanoBRET Target Engagement K192 Kinase Selectivity System)
Outline: as §1

[3] = biological target: T3, ICK (Homo sapiens, UniProt Q9UPZ9)
T3 construct: host or cells: HEK293
Outline: as §1

[4] = biological target: T4, LRRK2 (Homo sapiens, UniProt Q5S007)
T4 construct: purchased Promega (NanoBRET Target Engagement K192 Kinase Selectivity System)
T4 sequence (Q5S007 whole entry): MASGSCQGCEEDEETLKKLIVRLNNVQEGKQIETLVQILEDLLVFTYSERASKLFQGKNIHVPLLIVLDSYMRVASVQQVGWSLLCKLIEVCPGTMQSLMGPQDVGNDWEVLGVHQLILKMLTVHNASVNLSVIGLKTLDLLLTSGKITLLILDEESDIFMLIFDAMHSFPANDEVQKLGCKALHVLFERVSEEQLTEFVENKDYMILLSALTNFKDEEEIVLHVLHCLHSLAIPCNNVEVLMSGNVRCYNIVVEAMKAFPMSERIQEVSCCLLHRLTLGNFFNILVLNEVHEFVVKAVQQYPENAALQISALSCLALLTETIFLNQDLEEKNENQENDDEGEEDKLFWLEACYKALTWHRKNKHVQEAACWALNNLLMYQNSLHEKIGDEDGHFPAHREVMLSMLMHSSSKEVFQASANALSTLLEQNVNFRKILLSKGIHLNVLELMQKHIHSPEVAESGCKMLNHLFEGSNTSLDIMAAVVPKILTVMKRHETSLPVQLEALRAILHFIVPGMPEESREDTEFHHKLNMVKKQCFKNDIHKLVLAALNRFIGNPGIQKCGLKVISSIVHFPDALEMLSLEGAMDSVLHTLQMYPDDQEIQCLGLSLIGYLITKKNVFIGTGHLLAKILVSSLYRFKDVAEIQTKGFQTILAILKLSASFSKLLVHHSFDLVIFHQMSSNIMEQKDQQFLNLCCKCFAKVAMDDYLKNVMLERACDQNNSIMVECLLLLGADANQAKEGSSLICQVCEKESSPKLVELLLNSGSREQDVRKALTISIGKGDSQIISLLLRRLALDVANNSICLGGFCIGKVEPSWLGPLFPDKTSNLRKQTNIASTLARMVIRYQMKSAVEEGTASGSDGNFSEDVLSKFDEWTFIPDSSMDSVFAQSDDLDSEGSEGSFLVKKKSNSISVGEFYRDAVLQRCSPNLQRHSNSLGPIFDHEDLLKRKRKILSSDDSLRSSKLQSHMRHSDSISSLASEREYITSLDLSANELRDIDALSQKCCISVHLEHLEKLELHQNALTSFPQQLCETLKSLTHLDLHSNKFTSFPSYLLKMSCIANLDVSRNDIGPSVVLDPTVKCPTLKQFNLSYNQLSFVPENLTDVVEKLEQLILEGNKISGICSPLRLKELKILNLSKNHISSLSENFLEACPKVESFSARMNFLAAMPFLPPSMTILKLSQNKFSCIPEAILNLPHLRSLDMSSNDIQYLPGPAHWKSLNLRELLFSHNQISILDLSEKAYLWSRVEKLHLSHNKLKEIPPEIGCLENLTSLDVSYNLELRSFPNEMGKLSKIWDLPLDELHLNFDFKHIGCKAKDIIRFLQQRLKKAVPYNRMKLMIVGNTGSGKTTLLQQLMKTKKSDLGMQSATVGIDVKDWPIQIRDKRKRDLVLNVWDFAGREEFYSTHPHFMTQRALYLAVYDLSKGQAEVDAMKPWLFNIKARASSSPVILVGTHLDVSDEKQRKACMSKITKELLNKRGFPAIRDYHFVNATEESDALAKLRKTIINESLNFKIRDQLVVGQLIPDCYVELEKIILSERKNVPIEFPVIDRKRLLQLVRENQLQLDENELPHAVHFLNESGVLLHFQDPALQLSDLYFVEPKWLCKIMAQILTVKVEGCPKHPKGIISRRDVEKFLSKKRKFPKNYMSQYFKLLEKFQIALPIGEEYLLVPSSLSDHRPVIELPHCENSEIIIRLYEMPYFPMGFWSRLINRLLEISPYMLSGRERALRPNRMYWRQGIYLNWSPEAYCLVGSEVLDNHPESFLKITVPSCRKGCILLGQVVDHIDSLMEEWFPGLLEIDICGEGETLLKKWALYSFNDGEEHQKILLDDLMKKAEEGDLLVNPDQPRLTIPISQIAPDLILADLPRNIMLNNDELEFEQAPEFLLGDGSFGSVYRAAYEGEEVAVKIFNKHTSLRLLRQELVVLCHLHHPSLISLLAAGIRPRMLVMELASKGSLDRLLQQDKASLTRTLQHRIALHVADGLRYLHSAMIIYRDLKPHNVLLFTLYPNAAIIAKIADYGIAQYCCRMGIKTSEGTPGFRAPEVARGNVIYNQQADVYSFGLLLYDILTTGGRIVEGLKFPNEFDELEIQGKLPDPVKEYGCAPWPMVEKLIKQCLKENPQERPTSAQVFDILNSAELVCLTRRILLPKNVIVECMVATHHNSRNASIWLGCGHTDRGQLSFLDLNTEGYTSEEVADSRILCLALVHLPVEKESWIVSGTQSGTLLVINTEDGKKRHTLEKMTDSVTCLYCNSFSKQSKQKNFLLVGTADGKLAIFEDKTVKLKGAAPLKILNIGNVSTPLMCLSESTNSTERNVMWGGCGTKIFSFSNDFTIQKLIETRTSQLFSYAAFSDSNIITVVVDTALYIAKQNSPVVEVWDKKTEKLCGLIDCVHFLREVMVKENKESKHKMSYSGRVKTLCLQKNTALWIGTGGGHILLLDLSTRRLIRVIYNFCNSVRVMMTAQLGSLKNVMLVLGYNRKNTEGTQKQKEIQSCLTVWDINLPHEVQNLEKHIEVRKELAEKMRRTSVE
Outline: as §1

[5] = biological target: T5, BRSK2 (Homo sapiens, UniProt Q8IWQ3)
T5 construct: purchased Promega (NanoBRET Target Engagement K192 Kinase Selectivity System)
Outline: as §1

[6] = biological target: T6, CDKL5 (Homo sapiens, UniProt O76039)
T6 construct: purchased Promega (NanoBRET Target Engagement K192 Kinase Selectivity System)
Outline: as §1

[7] = biological target: T7, NEK2 (Homo sapiens, UniProt P51955)
T7 construct: purchased Promega (NanoBRET Target Engagement K192 Kinase Selectivity System)
Outline: as §1

[8] = biological target: T8, IRAK3 (Homo sapiens, UniProt Q9Y616)
T8 construct: purchased Promega (NanoBRET Target Engagement K192 Kinase Selectivity System)
Outline: as §1

[9] = biological target: T9, AURKC (Homo sapiens, UniProt Q9UQB9)
T9 construct: purchased Promega (NanoBRET Target Engagement K192 Kinase Selectivity System)
Outline: as §1

[10] = biological target: T10, TEK (Homo sapiens, UniProt Q02763)
T10 construct: purchased Promega (NanoBRET Target Engagement K192 Kinase Selectivity System)
Outline: as §1

[11] = biological target: T11, CDKL2 (Homo sapiens, UniProt Q92772)
T11 construct: purchased Promega (NanoBRET Target Engagement K192 Kinase Selectivity System)
Outline: as §1

[12] = biological target: T12, FYN (Homo sapiens, UniProt P06241)
T12 construct: purchased Promega (NanoBRET Target Engagement K192 Kinase Selectivity System)
Outline: as §1

[13] = biological target: T13, PTK2B (Homo sapiens, UniProt Q14289)
T13 construct: purchased Promega (NanoBRET Target Engagement K192 Kinase Selectivity System)
Outline: as §1

[14] = biological target: T14, AXL (Homo sapiens, UniProt P30530)
T14 construct: host or cells: HEK293
Outline: as §1

[15] = biological target: T15, MAPK8 (Homo sapiens, UniProt P45983)
T15 construct: purchased Promega (NanoBRET Target Engagement K192 Kinase Selectivity System)
Outline: as §1

[16] = biological target: T16, PKMYT1 (Homo sapiens, UniProt Q99640)
T16 construct: purchased Promega (NanoBRET Target Engagement K192 Kinase Selectivity System)
Outline: as §1

[17] = biological target: T17, CDK5 + CDK5R1 (Homo sapiens, UniProt Q00535)
T17 construct: purchased Promega (NanoBRET Target Engagement K192 Kinase Selectivity System)
T17 sequence (Q00535 whole entry): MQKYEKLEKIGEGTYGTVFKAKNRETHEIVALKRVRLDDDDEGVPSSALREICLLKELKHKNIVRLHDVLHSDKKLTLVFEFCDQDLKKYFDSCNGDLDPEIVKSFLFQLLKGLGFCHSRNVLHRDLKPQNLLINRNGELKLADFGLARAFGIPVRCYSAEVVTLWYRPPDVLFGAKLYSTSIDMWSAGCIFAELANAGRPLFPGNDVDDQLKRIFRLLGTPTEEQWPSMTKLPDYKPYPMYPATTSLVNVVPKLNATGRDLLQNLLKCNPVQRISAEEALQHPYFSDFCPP
T17 sequence (Q15078 whole entry partner): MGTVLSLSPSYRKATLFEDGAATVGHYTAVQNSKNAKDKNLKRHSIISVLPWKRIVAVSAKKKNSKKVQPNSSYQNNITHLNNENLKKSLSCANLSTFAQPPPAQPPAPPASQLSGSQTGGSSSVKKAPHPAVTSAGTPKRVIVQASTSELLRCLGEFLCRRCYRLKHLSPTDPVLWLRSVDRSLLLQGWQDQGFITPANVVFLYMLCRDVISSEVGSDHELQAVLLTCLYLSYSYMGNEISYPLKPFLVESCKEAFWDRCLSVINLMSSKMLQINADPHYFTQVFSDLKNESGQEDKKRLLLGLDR
Outline: as §1

[18] = biological target: T18, BRSK1 (Homo sapiens, UniProt Q8TDC3)
T18 construct: purchased Promega (NanoBRET Target Engagement K192 Kinase Selectivity System)
Outline: as §1

[19] = biological target: T19, RPS6KA6 (Homo sapiens, UniProt Q9UK32)
T19 construct: purchased Promega (NanoBRET Target Engagement K192 Kinase Selectivity System)
Outline: as §1

[20] = biological target: T20, IKBKE (Homo sapiens, UniProt Q14164)
T20 construct: purchased Promega (NanoBRET Target Engagement K192 Kinase Selectivity System)
Outline: as §1

[21] = biological target: T21, SLK (Homo sapiens, UniProt Q9H2G2)
T21 construct: purchased Promega (NanoBRET Target Engagement K192 Kinase Selectivity System)
Outline: as §1

[22] = biological target: T22, AAK1 (Homo sapiens, UniProt Q2M2I8)
T22 construct: purchased Promega (NanoBRET Target Engagement K192 Kinase Selectivity System)
T22 sequence (Q2M2I8 whole entry): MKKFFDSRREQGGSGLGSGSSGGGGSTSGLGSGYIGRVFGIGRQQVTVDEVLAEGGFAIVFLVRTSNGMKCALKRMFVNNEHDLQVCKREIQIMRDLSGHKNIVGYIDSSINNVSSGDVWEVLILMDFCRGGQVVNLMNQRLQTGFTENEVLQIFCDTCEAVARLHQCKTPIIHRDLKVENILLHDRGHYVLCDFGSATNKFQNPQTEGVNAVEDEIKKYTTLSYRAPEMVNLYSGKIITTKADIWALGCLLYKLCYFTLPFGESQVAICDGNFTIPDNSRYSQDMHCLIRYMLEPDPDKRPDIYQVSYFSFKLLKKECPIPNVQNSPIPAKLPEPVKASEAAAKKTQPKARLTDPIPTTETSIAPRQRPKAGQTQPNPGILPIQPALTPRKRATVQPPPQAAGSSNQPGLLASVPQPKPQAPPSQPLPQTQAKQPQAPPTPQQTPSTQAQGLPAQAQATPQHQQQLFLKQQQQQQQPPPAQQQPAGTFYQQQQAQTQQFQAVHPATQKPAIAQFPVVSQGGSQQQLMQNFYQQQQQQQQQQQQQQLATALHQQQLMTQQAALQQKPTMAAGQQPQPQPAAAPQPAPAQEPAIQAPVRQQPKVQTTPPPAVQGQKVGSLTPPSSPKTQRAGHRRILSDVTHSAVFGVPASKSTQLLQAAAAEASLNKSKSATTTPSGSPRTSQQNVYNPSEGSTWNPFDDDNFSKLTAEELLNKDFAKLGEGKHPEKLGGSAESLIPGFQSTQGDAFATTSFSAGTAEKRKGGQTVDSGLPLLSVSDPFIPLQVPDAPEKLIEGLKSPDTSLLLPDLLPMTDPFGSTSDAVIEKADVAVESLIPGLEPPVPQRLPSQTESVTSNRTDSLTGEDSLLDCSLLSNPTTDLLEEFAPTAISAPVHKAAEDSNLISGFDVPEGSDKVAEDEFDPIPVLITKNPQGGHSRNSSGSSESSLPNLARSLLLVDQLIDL
Outline: as §1

[23] = biological target: T23, IGF1R (Homo sapiens, UniProt P08069)
T23 construct: host or cells: HEK293
Outline: as §1

[24] = biological target: T24, STK35 (Homo sapiens, UniProt Q8TDR2)
T24 construct: purchased Promega (NanoBRET Target Engagement K192 Kinase Selectivity System)
Outline: as §1

[25] = biological target: T25, PRKCE (Homo sapiens, UniProt Q02156)
T25 construct: purchased Promega (NanoBRET Target Engagement K192 Kinase Selectivity System)
T25 sequence (Q02156 whole entry): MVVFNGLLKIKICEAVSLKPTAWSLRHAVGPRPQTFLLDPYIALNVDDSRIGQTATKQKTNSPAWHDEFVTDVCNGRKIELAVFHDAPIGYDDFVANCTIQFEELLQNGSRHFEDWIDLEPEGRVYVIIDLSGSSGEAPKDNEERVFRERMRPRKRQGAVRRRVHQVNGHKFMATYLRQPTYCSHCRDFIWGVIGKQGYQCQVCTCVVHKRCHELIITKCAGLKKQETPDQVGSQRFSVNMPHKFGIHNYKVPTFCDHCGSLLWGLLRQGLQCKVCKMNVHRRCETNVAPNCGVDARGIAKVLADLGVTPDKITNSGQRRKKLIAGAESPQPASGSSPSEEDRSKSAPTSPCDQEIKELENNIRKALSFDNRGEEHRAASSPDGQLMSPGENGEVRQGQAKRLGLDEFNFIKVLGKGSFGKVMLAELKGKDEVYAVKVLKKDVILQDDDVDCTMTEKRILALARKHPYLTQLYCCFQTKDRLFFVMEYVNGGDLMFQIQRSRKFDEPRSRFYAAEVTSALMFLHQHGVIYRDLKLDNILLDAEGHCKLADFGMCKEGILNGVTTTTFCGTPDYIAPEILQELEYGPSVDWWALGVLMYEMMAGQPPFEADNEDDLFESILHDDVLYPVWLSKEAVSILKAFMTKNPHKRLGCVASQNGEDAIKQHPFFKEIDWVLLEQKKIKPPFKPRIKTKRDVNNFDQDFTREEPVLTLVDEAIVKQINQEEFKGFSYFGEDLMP
Outline: as §1

[26] = biological target: T26, CDK16 + Y (Homo sapiens, UniProt Q00536)
T26 construct: purchased Promega (NanoBRET Target Engagement K192 Kinase Selectivity System)
Outline: as §1

For `CCC(=O)Nc1cc(Nc2cc(NC3CC3)n3ncc(C#N)c3n2)c(F)cc1N1CCC[C@H](NC)C1` [Compound 2, (S)-N-(5-((3-cyano-7-(cyclopropylamino)pyrazolo[1,5-a]pyrimidin-5-yl)amino)-4-fluoro-2-(3-(methylamino)piperidin-1-yl)phenyl)propionamide], the receptor occupancy at 10 µM [1] was 6.2%, the receptor occupancy at 10 µM [2] was 3.8% and the receptor occupancy at 10 µM [3] was -6.1%. The receptor occupancy at 10 µM [4] was -1.5%, the receptor occupancy at 10 µM [5] was 13.6% and the receptor occupancy at 10 µM [6] was 17.2%. For the same compound, the receptor occupancy at 10 µM [7] was 4.2%, the receptor occupancy at 10 µM [8] was 2.4% and the receptor occupancy at 10 µM [9] was 4.5%. For the same compound, the receptor occupancy at 10 µM [10] was 5.2%, the receptor occupancy at 10 µM [11] was 13.6% and the receptor occupancy at 10 µM [12] was 18.1%. It also gave a receptor occupancy at 10 µM [13] of -1.6%, a receptor occupancy at 10 µM [14] of -9.2% and a receptor occupancy at 10 µM [15] of 0.6%. It also gave a receptor occupancy at 10 µM [16] of 5.5%, a receptor occupancy at 10 µM [17] of 10.8% and a receptor occupancy at 10 µM [18] of 17.7%. The receptor occupancy at 10 µM [19] was 10.6%, the receptor occupancy at 10 µM [20] was 23.4% and the receptor occupancy at 10 µM [21] was 6.6%. It also gave a receptor occupancy at 10 µM [22] of 17.8%, a receptor occupancy at 10 µM [23] of -2.6% and a receptor occupancy at 10 µM [24] of 6.5%. It also gave a receptor occupancy at 10 µM [25] of 6.2% and a receptor occupancy at 10 µM [26] of 25.8%.
